The target of this assay is Rho-associated protein kinase 2 (Homo sapiens, UniProt O75116). Put plainly: In Vitro Assays. On the procedure:
The effectiveness of compounds of the present invention as ROCK inhibitors can be determined in a 30 μL assay containing 20 mM HEPES, pH 7.5, 20 mM MgCl2, 0.015% Brij-35, 4 mM DTT, 5 μM ATP and 1.5 μM peptide substrate (FITC-AHA-AKRRRLSSLRA-OH) (SEQ ID No. 1). Compounds were dissolved in DMSO so that the final concentration of DMSO was <2%, and the reaction was initiated with Rho kinase variants. After incubation, the reaction was terminated by the addition of EDTA and the phosphorylated and non-phosphorylated peptides separated using a LABCHIP 3000 Reader (Caliper Life Sciences). […] Compounds were tested in dose-response format, and the inhibition of kinase activity was calculated at each concentration of compound. The inhibition data were fit using a curve-fitting program to determine the IC50; i.e., the concentration of compound required to inhibit 50% of kinase activity.

Rho-associated protein kinase 2, sequence (O75116 whole entry): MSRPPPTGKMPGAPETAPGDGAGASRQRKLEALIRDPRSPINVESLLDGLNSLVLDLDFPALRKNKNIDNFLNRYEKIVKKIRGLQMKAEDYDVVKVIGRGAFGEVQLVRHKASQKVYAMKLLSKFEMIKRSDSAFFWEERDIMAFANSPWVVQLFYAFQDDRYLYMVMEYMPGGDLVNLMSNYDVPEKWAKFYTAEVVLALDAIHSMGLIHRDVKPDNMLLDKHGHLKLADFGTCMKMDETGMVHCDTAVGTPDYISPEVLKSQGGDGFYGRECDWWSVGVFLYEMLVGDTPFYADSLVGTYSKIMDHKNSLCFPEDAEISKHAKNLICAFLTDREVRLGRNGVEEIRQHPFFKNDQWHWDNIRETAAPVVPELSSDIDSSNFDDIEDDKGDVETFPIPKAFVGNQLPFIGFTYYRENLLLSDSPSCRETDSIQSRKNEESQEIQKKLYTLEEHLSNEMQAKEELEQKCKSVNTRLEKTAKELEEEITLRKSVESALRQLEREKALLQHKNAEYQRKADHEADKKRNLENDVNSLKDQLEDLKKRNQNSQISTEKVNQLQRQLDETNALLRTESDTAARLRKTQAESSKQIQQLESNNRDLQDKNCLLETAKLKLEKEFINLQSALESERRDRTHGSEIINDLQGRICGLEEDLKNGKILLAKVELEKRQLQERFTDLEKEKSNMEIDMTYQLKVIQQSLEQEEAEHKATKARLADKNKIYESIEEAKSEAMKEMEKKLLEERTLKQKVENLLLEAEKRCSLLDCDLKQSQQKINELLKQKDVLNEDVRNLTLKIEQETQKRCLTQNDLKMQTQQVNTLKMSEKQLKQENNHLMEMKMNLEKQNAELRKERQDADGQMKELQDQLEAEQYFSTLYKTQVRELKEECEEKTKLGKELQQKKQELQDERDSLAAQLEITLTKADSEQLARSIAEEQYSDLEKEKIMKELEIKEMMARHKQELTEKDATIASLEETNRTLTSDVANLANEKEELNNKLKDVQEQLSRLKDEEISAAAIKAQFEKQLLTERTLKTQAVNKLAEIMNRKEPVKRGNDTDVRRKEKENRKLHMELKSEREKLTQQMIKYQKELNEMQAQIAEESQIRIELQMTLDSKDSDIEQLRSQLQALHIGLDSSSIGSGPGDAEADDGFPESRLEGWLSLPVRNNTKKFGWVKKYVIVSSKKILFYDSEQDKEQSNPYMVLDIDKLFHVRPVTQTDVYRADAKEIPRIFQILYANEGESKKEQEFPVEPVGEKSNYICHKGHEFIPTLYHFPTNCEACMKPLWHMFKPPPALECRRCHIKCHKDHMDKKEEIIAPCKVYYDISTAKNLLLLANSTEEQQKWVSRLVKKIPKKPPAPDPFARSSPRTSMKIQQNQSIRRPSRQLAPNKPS

On to `NC(=O)c1cccnc1O[C@H]1CC2(C1)C[C@H](N1C(=O)NC(CCC3CCCCC3)C1=O)C2` (stereo partly drawn) [US11447487, Example 4], for which the half-inhibitory concentration (IC50) (usually the midpoint of a concentration-inhibition curve) came to 13 nM.

Molecule `NC(=O)c1cccnc1O[C@H]1CC2(C1)C[C@H](N1C(=O)CC(Cc3ccccc3)NC1=O)C2` (stereo partly drawn) [US11447487, Example 76] had a half-inhibitory concentration (IC50) of 456 nM.

The molecule `NC(=O)c1cccnc1O[C@H]1CC2(C1)C[C@H](N1C(=O)CN(c3ccc(OC(F)(F)F)cc3)C1=O)C2` (stereo partly drawn) [US11447487, Example 86] registered an IC50 of 6 nM.

(Values after BindingDB's records for patent US11447487 (Bristol-Myers Squibb Company, 2022).)
